Assay [1] relates to EV71. Description: Inhibition of EV71 in Vero cells (viral RNA, qRT-PCR). In kind it is cell-based, enterovirus 71 (EV71). The settings on record: for Percentage of viral RNA in Vero cells (%): EV71, 24 h after infection. The method, then: (1) Different cells were plated in a 24-well plate.
(2) When the cells grew to a confluence of 70%-80%, the DMEM medium containing 10% serum was replaced with a DMEM medium containing 2% serum (the DMEM medium containing 2% serum was added in each well at an amount of 0.5 mL), and 5 μL of EV71 virus of 1×10^6 PFU/mL was added to each well.
(3) After 1 h, different polypeptides (RQ or control TAT) with final concentrations of 0.3125 μM, 0.625 μM, 1.25 μM, 2.5 μM, and 5 μM were added respectively. The group without polypeptide added was used as a control.
(4) The samples were collected 24 h after the infection of EV71 virus, and RNA was extracted with the total RNA extraction kit.
(5) The supernatant was discarded, then 350 μL of TRK lysate was added to each well, and the plate was put on a shaker for 5 min.
(6) 350 μL of 70% ethanol (DEPC) was added to each well, and then the plate was put on a shaker for 5 min.
(7) The solution in each well was transferred to a RNA extraction column for 1 min of centrifugation at 12000 g.
(8) The solution obtained in the recovery tube was reloaded on the column again for 1 min of centrifugation at 12000 g.
(9) RNA washing buffer 1 was added in the column for 30 s of centrifugation at 12000 g.
(10) RNA washing buffer 2 was added in the column for 1 min of centrifugation at 12000 g.
(11) Step (10) was repeated.
(12) The column alone was centrifuged at 12000 g for 2 min to completely remove the residual RNA washing buffer.
(13) 50 μL of DEPC water was added to the column for 2 min of centrifugation at 12000 g.
(14) 2 μL of RNA sample was subjected to a fluorescence quantitative experiment using the one step qRT-PCR kit.
(1) Vero E6 cells were plated in a 24-well plate.
(3) After 1 h, different polypeptides (LQ or SQ) with final concentrations of 0.3125 μM, 0.625 μM, 1.25 μM, 2.5 μM, and 5 μM were added respectively. The group without polypeptide added was used as a control.

For another assay, the target named is T1, EV71 2C protein (Human enterovirus 71, UniProt Q66478).
T1 construct: In vitro expression and purification of EV71 2C protein; made in house; host or cells: Sf9 (Spodoptera frugiperda) cells infected with recombinant baculovirus
T1 sequence (Q66478 1112-1440 limits assumed): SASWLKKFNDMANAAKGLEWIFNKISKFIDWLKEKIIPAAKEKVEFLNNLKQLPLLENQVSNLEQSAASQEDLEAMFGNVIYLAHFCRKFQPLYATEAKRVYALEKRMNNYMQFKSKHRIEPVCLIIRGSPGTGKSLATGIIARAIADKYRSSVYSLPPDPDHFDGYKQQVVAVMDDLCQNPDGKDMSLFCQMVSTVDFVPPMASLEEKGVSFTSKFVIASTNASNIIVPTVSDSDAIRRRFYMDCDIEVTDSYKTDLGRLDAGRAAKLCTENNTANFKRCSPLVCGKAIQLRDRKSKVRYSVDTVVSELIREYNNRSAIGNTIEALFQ
In words: Inhibition of helicase activity of EV71 2C protein in vitro (dsRNA unwinding). The class given is biochemical. The settings on record: MBP-EV71 2C; dsRNA substrate; 37° C. 50 min. On the procedure: (1) A strand labeled with HEX at a concentration of 0.2 pmol/μL was added with a complementary strand RNA at the same concentration to prepare a HEX-labeled double-stranded dsRNA substrate by annealing.
(2) Annealing process: the reaction system was kept at 75° C. for 3 min, cooled to 25° C. at a rate of 1° C. per minute, and then kept at 25° C. for 2 min.
(3) The target protein and the double-stranded substrate were prepared according to the standard unwinding experiment reaction system. 5 μg of polypeptide RQ and control TAT were added respectively, and single and double strands controls were set. The single strand sample was boiled at 75° C. for 3 min and then placed on ice for 2 min.
(4) The prepared system was mixed well and then placed at 37° C. for 50 min of reaction.
(5) A mixture obtained after the reaction was subjected to electrophoresis.
(6) Finally, Typhoon 9500 was used for direct scan to obtain a HEX signal.
During electrophoresis, the single strand ran faster than the double strand. Therefore, if the MBP-2C protein had helicase activity, it can unwind the double-stranded dsRNA substrate to release a single-stranded RNA, and then the lane would show two bands, upper and lower. The single-stranded RNA (lane 2) prepared by boiling at 75° C. was used as a positive control. The reaction without protein added (lane 1) was used as a negative control.

For assay [2], the system named is EV71. Description: Inhibitory activity on EV71 in RD cells by CCK8 method. In kind it is cell-based, enterovirus 71 (EV71). The settings on record: for Inhibition rate on EV71 virus (%): RD cells, 0.1 MOI, 24 h, CCK8. On the procedure: (1) RD cells were plated in a 96-well plate at 100 μL per well.
(2) When the cells grew to a confluence of 70%-80%, the DMEM medium containing 10% serum was replaced with a DMEM medium containing 2% serum.
(3) The polypeptide drug was gradiently diluted with the DMEM containing 2% FBS into concentrations of 0.15625 μM, 0.3125 μM, 0.625 μM, 1.25 μM, 2.5 μM, and 5 μM, and then added to a new 96-well plate at 100 μL per well, with 3 replicate wells for each concentration.
(4) The diluted virus was added to the above wells at 100 μL per well. The wells with no drug and no virus added and the wells with no drug but virus added were set as controls respectively, with a final concentration of virus of 0.1 MOI.
(4) The mixture was transferred into the 96-well plate plated with cells for another 24 h of culture, and the inhibitory activity of the polypeptide on the virus was determined by a CCK8 kit.
(5) The inhibition rates of different concentrations of the polypeptides on virus infection were calculated according to a calculation formula of: inhibition rate of polypeptide=(well with drug-well with virus)×100%/(well with no drug-well with virus).
(3) The polypeptide drug was gradiently diluted with the DMEM containing 2% FBS into concentrations of 0.15625 μM, 0.3125 μM, 0.625 μM, 1.25 μM, 2.5 μM, and 5 μM, and then added to a new 96-well plate at 100 μL per well, with 3 replicate wells for each concentration. (4) The diluted virus was added to the above wells at 100 μL per well. The wells with no drug and no virus added and the wells with no drug but virus added were set as controls respectively, with a final concentration of virus of 0.1 MOI.
On the technique in general: Formazan colour is commonly taken as a measure of viable cells.

Several values for one entry are separate records, joined by “and”; a condition that tells them apart may be missing. Equal values may be shown once.

For `N=C(N)NCCC[C@H](NC(=O)[C@H](CCCNC(=N)N)NC(=O)[C@H](CCCNC(=N)N)NC(=O)[C@H](CCC(N)=O)NC(=O)[C@H](CCCNC(=N)N)NC(=O)[C@H](CCCNC(=N)N)NC(=O)[C@H](CCCCN)NC(=O)[C@H](CCCCN)NC(=O)[C@H](CCCNC(=N)N)NC(=O)CNC(=O)[C@@H](N)Cc1ccc(O)cc1)C(=O)O` [TAT, YGRKKRRQRRR], the “Percentage of viral RNA in Vero cells (%)” value with EV71 [1] (polypeptide 0.3125 μM) was 115.6133% and 93.75% and 91.92%; in the assay with EV71 [1] (polypeptide 0.625 μM), 121.4818% and 94.87% and 149.0928%; in the assay with EV71 [1] (polypeptide 1.25 μM), 111.6527% and 97.24% and 100.8214%; in the assay with EV71 [1] (polypeptide 2.5 μM), 125.8799% and 103.6078% and 137.9907%; in the assay with EV71 [1] (polypeptide 5 μM) it was 136.8661% and 104.0616% and 88.68%. The anti-EV71 effect entry in the assay with EV71 [1] (Vero cells) was “no anti-EV71 effect”. The “helicase activity of EV71 2C” value at EV71 2C protein is on record as “did not affect the helicase activity of 2C”. For the same compound, the antiviral activity result with EV71 [2] (EV71 in RD cells, CCK8 method) is recorded as “no antiviral activity”. The “Inhibition rate on EV71 virus (%)” value is 1.38% and 5.231% and 2.294% in the assay on EV71 [2] (polypeptide 0.15625 μM); 2.463% and 5.242% and 6.282% in the assay with EV71 [2] (polypeptide 0.3125 μM); 8.374% and 2.34% and 7.234% in the assay on EV71 [2] (polypeptide 0.625 μM); 8.365% and 3.237% and 6.203% in the assay with EV71 [2] (polypeptide 1.25 μM); 7.373% and 4.241% and 8.213% with EV71 [2] (polypeptide 2.5 μM).
